ChEMBL document CHEMBL1140365, “Investigation of glycine alpha-ketoamide HCV NS3 protease inhibitors: effect of carboxylic acid isosteres” (Bioorg Med Chem Lett, 2005)
pIC50: −log10 of the molar value. *1 amine or outer side, *2 acyl side, *3 side chain or, on linkers, in order; H or OH if unused. Where a SMILES comes first, the peptide text is derived from it. [ ]: non-standard residue; d: D form. The star is where a group is joined. Abu(ψCOCO) = CC[C@H](N[*:1])C(=O)C(=O)[*:2]; X1 = O=C(C(=O)[*:2])[C@H](CC(F)F)N[*:1]; Pyrazinecarbonyl = O=C(c1cnccn1)*; Cha = N[C@@H](CC1CCCCC1)C(=O)O

What follows are compounds tested against NS3 (Hepatitis C virus, UniProt A3EZJ3) (assay: Inhibitory concentration against glycine alpha-ketoamide HCV NS3 protease).
NS3, sequence (A3EZJ3 whole entry): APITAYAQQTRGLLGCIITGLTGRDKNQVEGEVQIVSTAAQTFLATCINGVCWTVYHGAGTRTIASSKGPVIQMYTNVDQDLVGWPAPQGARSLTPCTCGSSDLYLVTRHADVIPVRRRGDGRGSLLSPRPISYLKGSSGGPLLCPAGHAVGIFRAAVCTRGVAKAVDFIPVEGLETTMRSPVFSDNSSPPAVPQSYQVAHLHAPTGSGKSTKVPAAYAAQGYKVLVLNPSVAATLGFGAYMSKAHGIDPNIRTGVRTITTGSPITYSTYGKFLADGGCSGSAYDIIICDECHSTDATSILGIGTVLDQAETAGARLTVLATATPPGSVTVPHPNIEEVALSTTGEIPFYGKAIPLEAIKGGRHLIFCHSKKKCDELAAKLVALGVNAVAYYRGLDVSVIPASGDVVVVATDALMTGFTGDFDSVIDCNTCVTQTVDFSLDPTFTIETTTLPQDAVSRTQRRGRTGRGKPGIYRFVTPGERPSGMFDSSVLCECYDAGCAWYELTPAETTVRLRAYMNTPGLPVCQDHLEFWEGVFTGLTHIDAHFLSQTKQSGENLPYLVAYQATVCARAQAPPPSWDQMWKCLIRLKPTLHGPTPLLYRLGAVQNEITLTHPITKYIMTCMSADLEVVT
Set-up: species or system Hepacivirus hominis

SMILES | pIC50
CC[C@H](NC(=O)[C@H](CC1CCCCC1)NC(=O)[C@@H](NC(=O)[C@H](CC(C)C)NC(=O)c1cnccn1)[C@@H](C)CC)C(=O)C(=O)NCC(=O)NS(=O)(=O)c1cc(C(=O)O)ccc1Cl | 6.96
CC[C@H](C)[C@H](NC(=O)[C@H](CC(C)C)NC(=O)c1cnccn1)C(=O)N[C@@H](CC1CCCCC1)C(=O)N[C@@H](CC(F)F)C(=O)C(=O)NCc1nn[nH]n1 | 7.40
CC[C@H](NC(=O)[C@H](CC1CCCCC1)NC(=O)[C@@H](NC(=O)[C@H](CC(C)C)NC(=O)c1cnccn1)[C@@H](C)CC)C(=O)C(=O)NCC(=O)NS(=O)(=O)c1ccc([N+](=O)[O-])cc1 | 6.04
CC[C@H](NC(=O)[C@H](CC1CCCCC1)NC(=O)[C@@H](NC(=O)[C@H](CC(C)C)NC(=O)c1cnccn1)[C@@H](C)CC)C(=O)C(=O)NCC(=O)NS(C)(=O)=O | 4.60
CC[C@H](NC(=O)[C@H](CC1CCCCC1)NC(=O)[C@@H](NC(=O)[C@H](CC(C)C)NC(=O)c1cnccn1)[C@@H](C)CC)C(=O)C(=O)NCc1nn[nH]n1 | 6.34
CC[C@H](NC(=O)[C@H](CC1CCCCC1)NC(=O)[C@@H](NC(=O)[C@H](CC(C)C)NC(=O)c1cnccn1)[C@@H](C)CC)C(=O)C(=O)NCS(=O)(=O)O | 6.66
CC[C@H](C)[C@H](NC(=O)[C@H](CC(C)C)NC(=O)c1cnccn1)C(=O)N[C@@H](CC1CCCCC1)C(=O)N[C@@H](CC(F)F)C(=O)C(=O)NCC(=O)O (Pyrazinecarbonyl-LI[Cha][X1]G-OH) | 7.22
CC[C@H](NC(=O)[C@H](CC1CCCCC1)NC(=O)[C@@H](NC(=O)[C@H](CC(C)C)NC(=O)c1cnccn1)[C@@H](C)CC)C(=O)C(=O)NCC(=O)NS(=O)(=O)c1cc(Cl)cc(Cl)c1 | 6.89
CC[C@H](NC(=O)[C@H](CC1CCCCC1)NC(=O)[C@@H](NC(=O)[C@H](CC(C)C)NC(=O)c1cnccn1)[C@@H](C)CC)C(=O)C(=O)NCC(=O)NS(=O)(=O)c1cc(Cl)cc(S(=O)(=O)NC(=O)c2ccccc2)c1 | 6.92
CC[C@H](C)[C@H](NC(=O)[C@H](CC(C)C)NC(=O)c1cnccn1)C(=O)N[C@@H](CC1CCCCC1)C(=O)N[C@@H](CC(F)F)C(=O)C(=O)NCC(=O)NS(=O)(=O)c1cccc(-c2ccccc2)c1 | 7.22
CCCCCC(=O)Nc1nnc(S(=O)(=O)NC(=O)CNC(=O)C(=O)[C@H](CC(F)F)NC(=O)[C@H](CC2CCCCC2)NC(=O)[C@@H](NC(=O)[C@H](CC(C)C)NC(=O)c2cnccn2)[C@@H](C)CC)s1 | 7.70
CC[C@H](NC(=O)[C@H](CC1CCCCC1)NC(=O)[C@@H](NC(=O)[C@H](CC(C)C)NC(=O)c1cnccn1)[C@@H](C)CC)C(=O)C(=O)NCC(=O)NS(=O)(=O)c1ccccc1 | 5.05
CC[C@H](NC(=O)[C@H](CC1CCCCC1)NC(=O)[C@@H](NC(=O)[C@H](CC(C)C)NC(=O)c1cnccn1)[C@@H](C)CC)C(=O)C(=O)NCC(=O)NS(=O)(=O)c1nnc(NC(C)=O)s1 | 6.60
CC[C@H](C)[C@H](NC(=O)[C@H](CC(C)C)NC(=O)c1cnccn1)C(=O)N[C@@H](CC1CCCCC1)C(=O)N[C@@H](CC(F)F)C(=O)C(=O)NCC(=O)NS(=O)(=O)c1cc(Cl)cc(S(=O)(=O)NC(=O)c2ccccc2)c1 | 7.22
CC[C@H](NC(=O)[C@H](CC1CCCCC1)NC(=O)[C@@H](NC(=O)[C@H](CC(C)C)NC(=O)c1cnccn1)[C@@H](C)CC)C(=O)C(=O)NCC(=O)NS(=O)(=O)c1cccc(Cl)c1 | 6.60
CC[C@H](NC(=O)[C@H](CC1CCCCC1)NC(=O)[C@@H](NC(=O)[C@H](CC(C)C)NC(=O)c1cnccn1)[C@@H](C)CC)C(=O)C(=O)NCC(=O)O (Pyrazinecarbonyl-LI[Cha][Abu(ψCOCO)]G-OH) | 6.64
CC[C@H](C)[C@H](NC(=O)[C@H](CC(C)C)NC(=O)c1cnccn1)C(=O)N[C@@H](CC1CCCCC1)C(=O)N[C@@H](CC(F)F)C(=O)C(=O)NCC(=O)NS(=O)(=O)c1cc(Cl)cc(S(N)(=O)=O)c1 | 7.30
CC[C@H](NC(=O)[C@H](CC1CCCCC1)NC(=O)[C@@H](NC(=O)[C@H](CC(C)C)NC(=O)c1cnccn1)[C@@H](C)CC)C(=O)C(=O)NCC(=O)NS(=O)(=O)c1cccc(-c2ccccc2)c1 | 6.19
CC[C@H](NC(=O)[C@H](CC1CCCCC1)NC(=O)[C@@H](NC(=O)[C@H](CC(C)C)NC(=O)c1cnccn1)[C@@H](C)CC)C(=O)C(=O)NCC(=O)NS(=O)(=O)c1cccc([N+](=O)[O-])c1 | 6.39
CC[C@H](NC(=O)[C@H](CC1CCCCC1)NC(=O)[C@@H](NC(=O)[C@H](CC(C)C)NC(=O)c1cnccn1)[C@@H](C)CC)C(=O)C(=O)NCC(=O)NS(=O)(=O)c1ccc(-c2ccccc2)cc1 | 5.62
CC[C@H](NC(=O)[C@H](CC1CCCCC1)NC(=O)[C@@H](NC(=O)[C@H](CC(C)C)NC(=O)c1cnccn1)[C@@H](C)CC)C(=O)C(=O)NCC(=O)NS(=O)(=O)c1ccc2ccccc2c1 | 5.92
CC[C@H](NC(=O)[C@H](CC1CCCCC1)NC(=O)[C@@H](NC(=O)[C@H](CC(C)C)NC(=O)c1cnccn1)[C@@H](C)CC)C(=O)C(=O)NCC(=O)NS(=O)(=O)Cc1ccccc1 | 4.92
CC[C@H](NC(=O)[C@H](CC1CCCCC1)NC(=O)[C@@H](NC(=O)[C@H](CC(C)C)NC(=O)c1cnccn1)[C@@H](C)CC)C(=O)C(=O)NCC(=O)NS(=O)(=O)C(F)(F)F | 6.33
CC[C@H](C)[C@H](NC(=O)[C@H](CC(C)C)NC(=O)c1cnccn1)C(=O)N[C@@H](CC1CCCCC1)C(=O)N[C@@H](CC(F)F)C(=O)C(=O)NCC(=O)NS(=O)(=O)c1nnc(NC(=O)c2ccc(Cl)cc2)s1 | 7.70
